Laboratory results reported in ChEMBL document CHEMBL3352711, “Discovery and Characterization of ML398, a Potent and Selective Antagonist of the D4 Receptor with in Vivo Activity” (ACS Med Chem Lett, 2014).
Blank lines part the entries; values can stand above or below the molecule they belong to. Calls of active or inactive are those of the source. The rule behind the calls is not given here.

Legend:
D(4) dopamine receptor = biological target: T1, D(4) dopamine receptor (Homo sapiens, UniProt P21917); assay: Inhibition of human dopamine D4 receptor
T1 sequence (P21917 whole entry): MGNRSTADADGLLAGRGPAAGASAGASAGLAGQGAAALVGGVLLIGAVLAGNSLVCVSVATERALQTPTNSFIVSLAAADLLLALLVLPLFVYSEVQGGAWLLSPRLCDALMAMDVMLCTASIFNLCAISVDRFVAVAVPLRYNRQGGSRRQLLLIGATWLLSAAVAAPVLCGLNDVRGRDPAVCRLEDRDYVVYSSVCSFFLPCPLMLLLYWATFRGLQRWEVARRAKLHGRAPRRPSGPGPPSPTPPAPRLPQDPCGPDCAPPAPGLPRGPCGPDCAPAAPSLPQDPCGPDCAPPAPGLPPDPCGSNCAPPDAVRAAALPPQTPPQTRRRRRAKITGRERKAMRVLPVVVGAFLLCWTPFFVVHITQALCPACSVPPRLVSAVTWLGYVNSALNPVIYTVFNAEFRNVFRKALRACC

[1] = biological target: T2, D(4) dopamine receptor (Homo sapiens) (UniProt P21917); assay: Inhibition of human dopamine D4 receptor at 10 uM
T2 sequence (whole entry): T1 sequence (P21917 whole entry)

D(1A) dopamine receptor = D(1A) dopamine receptor (Homo sapiens, UniProt P21728); assay: Inhibition of human dopamine D1 receptor
D(3) dopamine receptor = D(3) dopamine receptor (Homo sapiens, UniProt P35462); assay: Inhibition of human dopamine D3 receptor
[2] = biological target: D(1B) dopamine receptor (Homo sapiens) (UniProt P21918); assay: Inhibition of human dopamine D5 receptor
D(2) dopamine receptor [3] = biological target: T3, D(2) dopamine receptor (Homo sapiens, UniProt P14416); assay: Inhibition of human dopamine D2S receptor
D(2) dopamine receptor [4] = biological target: T3, D(2) dopamine receptor; assay: Inhibition of human dopamine D2L receptor
D(2) dopamine receptor [5] = biological target: T3, D(2) dopamine receptor; assay: Inhibition of human dopamine D2 receptor
[6] = biological target: T4, Alpha-1A adrenergic receptor (Homo sapiens) (UniProt P35348); assay: Binding affinity to adrenergic alpha1A receptor (unknown origin) at 10 uM by radioligand binding assay
T4 sequence (whole entry): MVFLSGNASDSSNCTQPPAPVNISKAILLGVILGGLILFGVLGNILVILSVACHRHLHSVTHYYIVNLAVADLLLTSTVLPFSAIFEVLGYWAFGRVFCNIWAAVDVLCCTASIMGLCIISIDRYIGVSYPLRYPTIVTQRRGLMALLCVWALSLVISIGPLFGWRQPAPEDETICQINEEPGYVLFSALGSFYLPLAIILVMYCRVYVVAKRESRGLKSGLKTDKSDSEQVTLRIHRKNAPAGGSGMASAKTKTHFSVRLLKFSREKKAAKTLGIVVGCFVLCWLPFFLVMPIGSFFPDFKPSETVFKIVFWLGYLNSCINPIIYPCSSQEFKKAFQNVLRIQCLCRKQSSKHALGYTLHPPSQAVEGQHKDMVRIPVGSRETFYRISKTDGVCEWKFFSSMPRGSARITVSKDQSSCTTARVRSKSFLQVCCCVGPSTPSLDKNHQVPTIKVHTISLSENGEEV

[7] = biological target: Histamine H1 receptor (Homo sapiens) (UniProt P35367); assay: Binding affinity to histamine H1 receptor (unknown origin) at 10 uM by radioligand binding assay
[8] = biological target: Sigma non-opioid intracellular receptor 1 (Homo sapiens) (UniProt Q99720); assay: Binding affinity to sigma 1 receptor (unknown origin) at 10 uM by radioligand binding assay
[9] = biological target: Sodium-dependent dopamine transporter (Homo sapiens) (UniProt Q01959); assay: Binding affinity to dopamine transporter (unknown origin) at 10 uM by radioligand binding assay
[10] = biological target: Sodium-dependent noradrenaline transporter (Homo sapiens) (UniProt P23975); assay: Binding affinity to norepinephrine transporter (unknown origin) at 10 uM by radioligand binding assay
[11] = Fraction unbound in human plasma; type: ADME, cell-free
[12] = Fraction unbound in rat plasma; type: ADME, cell-free
Cytochrome P450 1A2 = biological target: T5, Cytochrome P450 1A2 (Homo sapiens, UniProt P05177); assay: Inhibition of human CYP1A2 by electrospray ionization; type: ADME
T5 sequence (P05177 whole entry): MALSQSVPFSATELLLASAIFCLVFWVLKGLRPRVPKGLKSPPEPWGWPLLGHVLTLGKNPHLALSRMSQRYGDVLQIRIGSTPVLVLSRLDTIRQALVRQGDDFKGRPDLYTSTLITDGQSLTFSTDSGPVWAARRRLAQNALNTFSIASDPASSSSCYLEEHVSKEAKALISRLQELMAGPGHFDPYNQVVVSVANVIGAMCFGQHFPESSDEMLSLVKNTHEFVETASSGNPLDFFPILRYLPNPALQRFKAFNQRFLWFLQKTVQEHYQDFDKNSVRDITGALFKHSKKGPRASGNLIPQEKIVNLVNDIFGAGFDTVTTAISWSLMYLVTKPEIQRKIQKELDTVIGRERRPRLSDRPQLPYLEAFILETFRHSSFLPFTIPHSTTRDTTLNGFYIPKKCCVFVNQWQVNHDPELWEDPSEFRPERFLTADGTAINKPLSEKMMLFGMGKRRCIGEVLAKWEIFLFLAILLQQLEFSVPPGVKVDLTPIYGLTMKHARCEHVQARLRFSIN

Cytochrome P450 2C9 = Cytochrome P450 2C9 (Homo sapiens, UniProt P11712); assay: Inhibition of human CYP2C9 by electrospray ionization; type: ADME
Cytochrome P450 2D6 = Cytochrome P450 2D6 (Homo sapiens, UniProt P10635); assay: Inhibition of human CYP2D6 by electrospray ionization; type: ADME
Cytochrome P450 3A4 = Cytochrome P450 3A4 (Homo sapiens, UniProt P08684); assay: Inhibition of human CYP3A4 by electrospray ionization; type: ADME
[13] = Drug uptake in Sprague-Dawley rat plasma at 10 mg/kg, ip after 0.25 hrs; type: ADME, organism-based; set-up: dose 10 mg/kg, route intraperitoneal
[14] = Drug uptake in Sprague-Dawley rat brain at 10 mg/kg, ip after 0.25 hrs; type: ADME, organism-based; set-up: dose 10 mg/kg, route intraperitoneal
[15] = Ratio of drug level in Sprague-Dawley rat brain to plasma at 10 mg/kg, ip after 0.25 hrs; type: ADME, organism-based; set-up: dose 10 mg/kg, route intraperitoneal
Rattus norvegicus [16] = assay: Reversal of cocaine-induced hyperlocomotion in Sprague-Dawley rat at 10 mg/kg, ip; type: functional, organism-based; set-up: dose 10 mg/kg
Rattus norvegicus [17] = assay: Reversal of cocaine-induced hyperlocomotion in Sprague-Dawley rat at 3 mg/kg, ip; type: functional, organism-based; set-up: dose 3 mg/kg

T3 sequence (P14416 whole entry): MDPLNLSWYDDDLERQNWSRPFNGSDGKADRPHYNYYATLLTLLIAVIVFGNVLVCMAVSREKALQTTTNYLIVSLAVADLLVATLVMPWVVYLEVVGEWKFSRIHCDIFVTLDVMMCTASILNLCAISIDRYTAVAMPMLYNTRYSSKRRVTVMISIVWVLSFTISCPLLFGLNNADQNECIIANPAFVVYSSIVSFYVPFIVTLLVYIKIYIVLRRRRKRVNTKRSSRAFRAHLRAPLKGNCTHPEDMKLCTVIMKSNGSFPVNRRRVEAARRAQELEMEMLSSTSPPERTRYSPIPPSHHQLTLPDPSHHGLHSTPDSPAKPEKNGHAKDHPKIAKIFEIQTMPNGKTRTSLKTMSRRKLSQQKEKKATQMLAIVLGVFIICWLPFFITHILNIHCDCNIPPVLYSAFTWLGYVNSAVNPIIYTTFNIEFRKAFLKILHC
Chain of D(1B) dopamine receptor (Homo sapiens) (P21918 whole entry): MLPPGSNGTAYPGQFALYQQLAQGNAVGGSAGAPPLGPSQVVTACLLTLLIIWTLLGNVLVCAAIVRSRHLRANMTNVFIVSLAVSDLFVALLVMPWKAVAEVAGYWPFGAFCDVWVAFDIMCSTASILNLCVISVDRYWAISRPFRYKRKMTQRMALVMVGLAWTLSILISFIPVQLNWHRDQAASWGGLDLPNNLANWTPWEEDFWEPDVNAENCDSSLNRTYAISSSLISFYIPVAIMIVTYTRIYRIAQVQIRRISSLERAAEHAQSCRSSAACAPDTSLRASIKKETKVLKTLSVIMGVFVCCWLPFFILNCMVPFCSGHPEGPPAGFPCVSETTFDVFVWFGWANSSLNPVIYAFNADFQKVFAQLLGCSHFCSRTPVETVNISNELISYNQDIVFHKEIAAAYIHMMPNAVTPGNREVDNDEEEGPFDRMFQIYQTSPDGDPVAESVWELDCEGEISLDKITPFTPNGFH
Chain of D(1A) dopamine receptor (P21728 whole entry): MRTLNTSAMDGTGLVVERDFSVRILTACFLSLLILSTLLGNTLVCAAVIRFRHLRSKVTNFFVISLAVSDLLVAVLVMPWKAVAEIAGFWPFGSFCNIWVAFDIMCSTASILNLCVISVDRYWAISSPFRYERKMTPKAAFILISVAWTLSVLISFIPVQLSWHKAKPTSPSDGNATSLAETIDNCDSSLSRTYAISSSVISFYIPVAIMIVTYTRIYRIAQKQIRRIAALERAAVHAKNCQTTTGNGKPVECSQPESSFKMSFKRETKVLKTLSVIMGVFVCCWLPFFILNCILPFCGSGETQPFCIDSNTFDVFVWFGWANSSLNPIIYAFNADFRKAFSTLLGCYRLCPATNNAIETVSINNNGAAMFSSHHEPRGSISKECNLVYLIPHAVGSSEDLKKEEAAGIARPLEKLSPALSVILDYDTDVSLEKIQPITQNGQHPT
Chain of D(3) dopamine receptor (P35462 whole entry): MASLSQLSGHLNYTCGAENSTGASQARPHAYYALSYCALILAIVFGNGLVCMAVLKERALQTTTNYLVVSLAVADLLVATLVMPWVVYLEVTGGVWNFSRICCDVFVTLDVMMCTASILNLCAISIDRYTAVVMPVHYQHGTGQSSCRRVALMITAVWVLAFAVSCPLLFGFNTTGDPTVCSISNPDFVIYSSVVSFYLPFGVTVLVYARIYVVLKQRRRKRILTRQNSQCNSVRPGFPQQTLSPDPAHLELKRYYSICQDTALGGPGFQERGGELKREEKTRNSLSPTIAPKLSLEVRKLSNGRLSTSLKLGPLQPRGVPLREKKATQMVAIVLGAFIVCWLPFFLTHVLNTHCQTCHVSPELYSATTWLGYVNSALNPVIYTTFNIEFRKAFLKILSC
Chain of Cytochrome P450 3A4 (P08684 whole entry): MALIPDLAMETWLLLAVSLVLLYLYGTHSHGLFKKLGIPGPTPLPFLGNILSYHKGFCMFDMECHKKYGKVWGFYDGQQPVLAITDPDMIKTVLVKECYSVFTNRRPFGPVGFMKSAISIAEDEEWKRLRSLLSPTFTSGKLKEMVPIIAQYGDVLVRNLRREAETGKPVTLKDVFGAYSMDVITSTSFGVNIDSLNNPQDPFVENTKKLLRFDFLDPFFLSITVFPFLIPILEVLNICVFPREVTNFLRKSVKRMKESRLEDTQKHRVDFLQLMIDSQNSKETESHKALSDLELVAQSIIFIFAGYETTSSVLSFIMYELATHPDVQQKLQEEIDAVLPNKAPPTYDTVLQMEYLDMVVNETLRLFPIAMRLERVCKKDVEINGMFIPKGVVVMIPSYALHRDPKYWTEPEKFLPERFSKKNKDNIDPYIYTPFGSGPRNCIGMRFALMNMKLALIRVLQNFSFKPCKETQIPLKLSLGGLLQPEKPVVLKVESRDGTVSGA
Chain of Cytochrome P450 2C9 (P11712 whole entry): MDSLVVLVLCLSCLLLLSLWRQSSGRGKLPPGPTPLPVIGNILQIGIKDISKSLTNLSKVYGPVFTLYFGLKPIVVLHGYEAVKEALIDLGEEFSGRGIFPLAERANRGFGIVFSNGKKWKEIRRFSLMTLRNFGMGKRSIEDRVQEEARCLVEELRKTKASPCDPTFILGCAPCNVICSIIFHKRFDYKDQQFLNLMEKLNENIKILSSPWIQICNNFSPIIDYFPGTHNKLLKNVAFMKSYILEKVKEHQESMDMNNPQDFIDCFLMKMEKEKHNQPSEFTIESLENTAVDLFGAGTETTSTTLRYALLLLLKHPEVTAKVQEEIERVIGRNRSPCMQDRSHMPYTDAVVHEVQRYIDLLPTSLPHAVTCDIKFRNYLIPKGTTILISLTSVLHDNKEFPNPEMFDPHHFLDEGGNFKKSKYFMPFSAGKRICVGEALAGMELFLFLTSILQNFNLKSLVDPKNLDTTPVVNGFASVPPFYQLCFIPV
Chain of Cytochrome P450 2D6 (P10635 whole entry): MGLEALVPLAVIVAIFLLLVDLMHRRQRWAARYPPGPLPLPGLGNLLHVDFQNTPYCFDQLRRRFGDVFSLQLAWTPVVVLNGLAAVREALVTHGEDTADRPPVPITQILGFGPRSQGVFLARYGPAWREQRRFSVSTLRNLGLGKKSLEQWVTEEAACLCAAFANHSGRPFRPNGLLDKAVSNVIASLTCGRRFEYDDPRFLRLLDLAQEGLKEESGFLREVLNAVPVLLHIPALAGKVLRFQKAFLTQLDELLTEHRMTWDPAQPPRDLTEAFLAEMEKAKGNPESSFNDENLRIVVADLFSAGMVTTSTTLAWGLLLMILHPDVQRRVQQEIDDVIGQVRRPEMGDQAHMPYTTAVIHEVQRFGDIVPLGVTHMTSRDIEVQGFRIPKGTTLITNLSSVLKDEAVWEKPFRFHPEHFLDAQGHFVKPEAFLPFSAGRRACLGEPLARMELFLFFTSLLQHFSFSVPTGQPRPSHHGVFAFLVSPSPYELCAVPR
Chain of Sigma non-opioid intracellular receptor 1 (Homo sapiens) (Q99720 whole entry): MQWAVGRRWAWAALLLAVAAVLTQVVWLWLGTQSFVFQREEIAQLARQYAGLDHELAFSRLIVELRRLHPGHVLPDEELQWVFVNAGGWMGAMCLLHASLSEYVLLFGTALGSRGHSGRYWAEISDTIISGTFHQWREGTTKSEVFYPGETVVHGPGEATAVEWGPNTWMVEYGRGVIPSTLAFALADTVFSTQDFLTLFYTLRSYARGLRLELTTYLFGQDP
Chain of Sodium-dependent dopamine transporter (Homo sapiens) (Q01959 whole entry): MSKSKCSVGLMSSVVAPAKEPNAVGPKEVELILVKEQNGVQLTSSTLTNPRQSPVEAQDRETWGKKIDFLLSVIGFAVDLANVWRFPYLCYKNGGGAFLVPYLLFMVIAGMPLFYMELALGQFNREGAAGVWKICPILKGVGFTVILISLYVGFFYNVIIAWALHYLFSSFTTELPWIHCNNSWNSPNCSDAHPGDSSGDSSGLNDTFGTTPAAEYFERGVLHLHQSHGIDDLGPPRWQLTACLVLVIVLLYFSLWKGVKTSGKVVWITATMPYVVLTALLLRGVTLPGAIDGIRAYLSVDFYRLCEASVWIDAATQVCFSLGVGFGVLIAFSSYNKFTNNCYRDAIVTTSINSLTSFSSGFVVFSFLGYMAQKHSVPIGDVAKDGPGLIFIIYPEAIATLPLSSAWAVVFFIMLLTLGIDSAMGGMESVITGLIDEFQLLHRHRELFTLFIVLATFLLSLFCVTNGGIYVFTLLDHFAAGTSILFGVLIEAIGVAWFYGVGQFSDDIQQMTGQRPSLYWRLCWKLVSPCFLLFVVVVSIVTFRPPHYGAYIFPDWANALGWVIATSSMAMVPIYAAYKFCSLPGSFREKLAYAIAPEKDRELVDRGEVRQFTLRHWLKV
Chain of Histamine H1 receptor (Homo sapiens) (P35367 whole entry): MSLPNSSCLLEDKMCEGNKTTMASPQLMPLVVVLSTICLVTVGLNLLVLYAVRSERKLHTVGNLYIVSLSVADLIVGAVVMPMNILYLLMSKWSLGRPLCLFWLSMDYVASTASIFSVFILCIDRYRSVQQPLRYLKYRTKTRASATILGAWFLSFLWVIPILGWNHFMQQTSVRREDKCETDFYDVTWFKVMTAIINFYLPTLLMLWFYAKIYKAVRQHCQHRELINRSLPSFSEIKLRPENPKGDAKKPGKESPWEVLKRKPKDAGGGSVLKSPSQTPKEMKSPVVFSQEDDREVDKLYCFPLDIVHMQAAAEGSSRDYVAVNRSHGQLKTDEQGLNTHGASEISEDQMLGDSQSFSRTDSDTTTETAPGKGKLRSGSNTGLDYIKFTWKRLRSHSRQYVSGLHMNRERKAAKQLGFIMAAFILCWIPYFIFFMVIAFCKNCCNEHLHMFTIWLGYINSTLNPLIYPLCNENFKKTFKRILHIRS

Structure (SMILES): c1ccc(CCC2CN(Cc3ccccn3)CCO2)cc1 (racemic)
inhibition [1]: 23%

Structure (SMILES): FC(F)(F)Oc1ccc(CN2CCO[C@H](CCc3ccccc3)C2)cc1
INH (D(1A) dopamine receptor): > 20 µM | IC50 (D(3) dopamine receptor): 8.17 µM | Ki (D(3) dopamine receptor): 2.77 µM | IC50 (D(4) dopamine receptor): 0.23 µM | Ki (D(4) dopamine receptor): 0.065 µM | inhibition [1]: 96% | INH [2]: > 20 µM | INH (D(2) dopamine receptor [3]): > 20 µM | Ki (D(2) dopamine receptor [4]): 5.5 µM

Structure (SMILES): c1ccc(CC[C@H]2CN(Cc3nc4ccccc4[nH]3)CCO2)cc1
IC50 (D(1A) dopamine receptor): > 100 µM | Ki (D(1A) dopamine receptor): > 100 µM | IC50 (D(2) dopamine receptor [5]): > 100 µM | Ki (D(2) dopamine receptor [5]): > 100 µM | IC50 (D(3) dopamine receptor): 76.4 µM | Ki (D(3) dopamine receptor): 25.9 µM | IC50 (D(4) dopamine receptor): > 100 µM | Ki (D(4) dopamine receptor): > 100 µM

Structure (SMILES): c1ccc(CCC2CN(Cc3cccnc3)CCO2)cc1 (racemic)
inhibition [1]: 35%

Structure (SMILES): FC(F)(F)Oc1ccc(CN2CCOC(CCc3ccccc3)C2)cc1 (racemic)
INH (D(1A) dopamine receptor): > 20 µM | IC50 (D(3) dopamine receptor): 8.17 µM | Ki (D(3) dopamine receptor): 2.77 µM | IC50 (D(4) dopamine receptor): 0.16 µM | Ki (D(4) dopamine receptor): 0.043 µM | inhibition [1]: 94% | INH [2]: > 20 µM | INH (D(2) dopamine receptor [3]): > 20 µM | Ki (D(2) dopamine receptor [4]): 5.5 µM

Structure (SMILES): Cn1c(N2CCOC(CCc3ccccc3)C2)nc2ccccc21 (racemic)
inhibition [1]: 17%

Structure (SMILES): FC(F)(F)Oc1cccc(CN2CCOC(CCc3ccccc3)C2)c1 (racemic)
IC50 (D(4) dopamine receptor): 0.39 µM | Ki (D(4) dopamine receptor): 0.11 µM | inhibition [1]: 88%

Structure (SMILES): Fc1cccc(F)c1CN1CCOC(CCc2ccccc2)C1 (racemic)
IC50 (D(4) dopamine receptor): 3.88 µM | Ki (D(4) dopamine receptor): 1.07 µM | inhibition [1]: 51%

Structure (SMILES): O=S(=O)(c1ccccc1)N1CCOC(CCc2ccccc2)C1 (racemic)
inhibition [1]: 2%

Structure (SMILES): c1ccc(CCC2CN(Cc3nc4ccccc4[nH]3)CCO2)cc1 (racemic)
IC50 (D(1A) dopamine receptor): > 100 µM | Ki (D(1A) dopamine receptor): > 100 µM | IC50 (D(2) dopamine receptor [5]): > 100 µM | Ki (D(2) dopamine receptor [5]): > 100 µM | IC50 (D(3) dopamine receptor): 31.8 µM | Ki (D(3) dopamine receptor): 10.8 µM | IC50 (D(4) dopamine receptor): 0.36 µM | Ki (D(4) dopamine receptor): 0.14 µM

Structure (SMILES): c1ccc(CC[C@@H]2CN(Cc3nc4ccccc4[nH]3)CCO2)cc1
IC50 (D(1A) dopamine receptor): > 100 µM | Ki (D(1A) dopamine receptor): > 100 µM | IC50 (D(2) dopamine receptor [5]): > 100 µM | Ki (D(2) dopamine receptor [5]): > 100 µM | IC50 (D(3) dopamine receptor): 46.2 µM | Ki (D(3) dopamine receptor): 15.7 µM | IC50 (D(4) dopamine receptor): 0.18 µM | Ki (D(4) dopamine receptor): 0.07 µM | fraction unbound [11]: 0.012 | fraction unbound [12]: 0.133 | IC50 (Cytochrome P450 1A2): 13.1 µM | IC50 (Cytochrome P450 2C9): 4.8 µM | IC50 (Cytochrome P450 2D6): 12 µM | IC50 (Cytochrome P450 3A4): 15.6 µM | concentration at 0.25 h [13]: 1940 nM | concentration at 0.25 h [14]: 3560 nM | Kp at 0.25 h [15]: 1.8 | Activity (Rattus norvegicus [17]): inactive | Activity (Rattus norvegicus [16]): inactive

Structure (SMILES): c1ccc(CCC2CN(Cc3ccncc3)CCO2)cc1 (racemic)
inhibition [1]: 13%

Structure (SMILES): c1ccc(CCC2CN(Cc3ccccc3)CCO2)cc1 (racemic)
IC50 (D(4) dopamine receptor): 1.48 µM | Ki (D(4) dopamine receptor): 0.41 µM | inhibition [1]: 74%

Continued, in another order:

IC50 (D(4) dopamine receptor): 3.68 µM | Ki (D(4) dopamine receptor): 1.02 µM | inhibition [1]: 54%
Structure (SMILES): Cc1ccccc1CN1CCOC(CCc2ccccc2)C1 (racemic)

inhibition [1]: 5%
Structure (SMILES): O=C(Nc1ccc(F)cc1)N1CCOC(CCc2ccccc2)C1 (racemic)

INH (D(1A) dopamine receptor): > 20 µM | INH (D(3) dopamine receptor): > 20 µM | IC50 (D(4) dopamine receptor): 0.13 µM | Ki (D(4) dopamine receptor): 0.036 µM | inhibition [1]: 96% | INH [2]: > 20 µM | INH (D(2) dopamine receptor [3]): > 20 µM | INH (D(2) dopamine receptor [4]): > 20 µM | Activity [6]: 77% | Activity [7]: 93% | Activity [8]: 99% | Activity [9]: 72% | Activity [10]: 68% | fraction unbound [11]: 0.061 | fraction unbound [12]: 0.039 | IC50 (Cytochrome P450 1A2): > 30 µM | IC50 (Cytochrome P450 2C9): > 30 µM | IC50 (Cytochrome P450 2D6): 18 µM | IC50 (Cytochrome P450 3A4): > 30 µM | concentration at 0.25 h [13]: 482 nM | concentration at 0.25 h [14]: 987 nM | Kp at 0.25 h [15]: 2
Structure (SMILES): Clc1ccc(CN2CCO[C@H](CCc3ccccc3)C2)cc1
Activity (Rattus norvegicus [16]): Active

INH (D(1A) dopamine receptor): > 20 µM | INH (D(3) dopamine receptor): > 20 µM | IC50 (D(4) dopamine receptor): 0.29 µM | Ki (D(4) dopamine receptor): 0.081 µM | inhibition [1]: 97% | INH [2]: > 20 µM | INH (D(2) dopamine receptor [3]): > 20 µM | INH (D(2) dopamine receptor [4]): > 20 µM
Structure (SMILES): Clc1ccc(CN2CCOC(CCc3ccccc3)C2)cc1 (racemic)

IC50 (D(4) dopamine receptor): 1.14 µM | Ki (D(4) dopamine receptor): 0.32 µM | inhibition [1]: 88%
Structure (SMILES): Fc1ccc(CN2CCOC(CCc3ccccc3)C2)cc1 (racemic)

inhibition [1]: 5%
Structure (SMILES): c1ccc(CCC2CN(c3ccccc3)CCO2)cc1 (racemic)

INH (D(1A) dopamine receptor): > 20 µM | IC50 (D(3) dopamine receptor): 8.17 µM | Ki (D(3) dopamine receptor): 2.77 µM | IC50 (D(4) dopamine receptor): 0.17 µM | Ki (D(4) dopamine receptor): 0.046 µM | inhibition [1]: 98% | INH [2]: > 20 µM | INH (D(2) dopamine receptor [3]): > 20 µM | IC50 (D(2) dopamine receptor [4]): 16.5 µM
Structure (SMILES): COc1ccc(CN2CCOC(CCc3ccccc3)C2)cc1 (racemic)

inhibition [1]: 17%
Structure (SMILES): Cc1ccc(C(=O)N2CCOC(CCc3ccccc3)C2)cc1 (racemic)
